From ChEMBL document CHEMBL1201861, “Genomics of Drug Sensitity in Cancer screening data, Wellcome Trust Sanger Institute”

Experiments:
Test in all cases: cells
Settings in all cases: Homo sapiens
MZ2-MEL = assay type: functional, cell-based
Description: SANGER: Inhibition of human MZ2-MEL cell growth in a cell viability assay.

SH-4 = assay type: functional, cell-based
Description: SANGER: Inhibition of human SH-4 cell growth in a cell viability assay.

VA-ES-BJ = assay type: functional, cell-based
Description: SANGER: Inhibition of human VA-ES-BJ cell growth in a cell viability assay.

KE-37 = assay type: functional, cell-based
Description: SANGER: Inhibition of human KE-37 cell growth in a cell viability assay.

L-363 = assay type: functional, cell-based
Description: SANGER: Inhibition of human L-363 cell growth in a cell viability assay.

NMC-G1 = assay type: functional, cell-based
Description: SANGER: Inhibition of human NMC-G1 cell growth in a cell viability assay.

COLO-320-HSR = assay type: functional, cell-based
Description: SANGER: Inhibition of human COLO-320-HSR cell growth in a cell viability assay.

PSN1 = assay type: functional, cell-based
Description: SANGER: Inhibition of human PSN1 cell growth in a cell viability assay.

SF-126 = assay type: functional, cell-based
Description: SANGER: Inhibition of human SF126 cell growth in a cell viability assay.

NCI-H526 = assay type: functional, cell-based
Description: SANGER: Inhibition of human NCI-H526 cell growth in a cell viability assay.

MFH-ino = assay type: functional, cell-based
Description: SANGER: Inhibition of human MFH-ino cell growth in a cell viability assay.

D-263MG = assay type: functional, cell-based
Description: SANGER: Inhibition of human D-263MG cell growth in a cell viability assay.

NCI-H747 = assay type: functional, cell-based
Description: SANGER: Inhibition of human NCI-H747 cell growth in a cell viability assay.

ONS-76 = assay type: functional, cell-based
Description: SANGER: Inhibition of human ONS-76 cell growth in a cell viability assay.

LS-411N = assay type: functional, cell-based
EW-16 = assay type: functional, cell-based
Description: SANGER: Inhibition of human EW-16 cell growth in a cell viability assay.

HC-1 = assay type: functional, cell-based
Description: SANGER: Inhibition of human HC-1 cell growth in a cell viability assay.

NCI-H1355 = assay type: functional, cell-based
Description: SANGER: Inhibition of human NCI-H1355 cell growth in a cell viability assay.

HD-MY-Z = assay type: functional, cell-based
Description: SANGER: Inhibition of human HD-MY-Z cell growth in a cell viability assay.

GR-ST = assay type: functional, cell-based
Description: SANGER: Inhibition of human GR-ST cell growth in a cell viability assay.

ES7 = assay type: functional, cell-based
Description: SANGER: Inhibition of human ES7 cell growth in a cell viability assay.

MLMA = assay type: functional, cell-based
Description: SANGER: Inhibition of human MLMA cell growth in a cell viability assay.

NOMO-1 = assay type: functional, cell-based
Description: SANGER: Inhibition of human NOMO-1 cell growth in a cell viability assay.

TE-5 = assay type: functional, cell-based
Description: SANGER: Inhibition of human TE-5 cell growth in a cell viability assay.

EM-2 = assay type: functional, cell-based
Description: SANGER: Inhibition of human EM-2 cell growth in a cell viability assay.

LS-1034 = assay type: functional, cell-based
Description: SANGER: Inhibition of human LS-1034 cell growth in a cell viability assay.

HCE-T = assay type: functional, cell-based
Description: SANGER: Inhibition of human HCE-T cell growth in a cell viability assay.

K562 = assay type: functional, cell-based
Description: SANGER: Inhibition of human K-562 cell growth in a cell viability assay.

HT = assay type: functional, cell-based
Description: SANGER: Inhibition of human HT cell growth in a cell viability assay.

SW 962 = assay type: functional, cell-based
Description: SANGER: Inhibition of human SW962 cell growth in a cell viability assay.

OVCAR-4 = assay type: functional, cell-based
Description: SANGER: Inhibition of human OVCAR-4 cell growth in a cell viability assay.

DOHH-2 = assay type: functional, cell-based
Description: SANGER: Inhibition of human DOHH-2 cell growth in a cell viability assay.

EW-11 = assay type: functional, cell-based
Description: SANGER: Inhibition of human EW-11 cell growth in a cell viability assay.

NCI-H720 = assay type: functional, cell-based
Description: SANGER: Inhibition of human NCI-H720 cell growth in a cell viability assay.

NKM-1 = assay type: functional, cell-based
Description: SANGER: Inhibition of human NKM-1 cell growth in a cell viability assay.

COLO-829 = assay type: functional, cell-based
Description: SANGER: Inhibition of human COLO-829 cell growth in a cell viability assay.

KS-1 = assay type: functional, cell-based
Description: SANGER: Inhibition of human KS-1 cell growth in a cell viability assay.

DU-4475 = assay type: functional, cell-based
Description: SANGER: Inhibition of human DU-4475 cell growth in a cell viability assay.

EC-GI-10 = assay type: functional, cell-based
Description: SANGER: Inhibition of human EC-GI-10 cell growth in a cell viability assay.

NCI-H2126 = assay type: functional, cell-based
Description: SANGER: Inhibition of human NCI-H2126 cell growth in a cell viability assay.

DSH1 = assay type: functional, cell-based
Description: SANGER: Inhibition of human DSH1 cell growth in a cell viability assay.

LB373-MEL-D = assay type: functional, cell-based
Description: SANGER: Inhibition of human LB373-MEL-D cell growth in a cell viability assay.

CTB-1 = assay type: functional, cell-based
Description: SANGER: Inhibition of human CTB-1 cell growth in a cell viability assay.

NCI-H82 = assay type: functional, cell-based
Description: SANGER: Inhibition of human NCI-H82 cell growth in a cell viability assay.

MC116 = assay type: functional, cell-based
Description: SANGER: Inhibition of human MC116 cell growth in a cell viability assay.

BT-474 = assay type: functional, cell-based
Description: SANGER: Inhibition of human BT-474 cell growth in a cell viability assay.

LAMA-84 = assay type: functional, cell-based
Description: SANGER: Inhibition of human LAMA-84 cell growth in a cell viability assay.

MV4-11 = assay type: functional, cell-based, MV-4-11
Description: SANGER: Inhibition of human MV-4-11 cell growth in a cell viability assay.

RS4-11 = assay type: functional, cell-based
Description: SANGER: Inhibition of human RS4-11 cell growth in a cell viability assay.

LU-134-A = assay type: functional, cell-based
Description: SANGER: Inhibition of human LU-134-A cell growth in a cell viability assay.

MOLT-4 = assay type: functional, cell-based
Description: SANGER: Inhibition of human MOLT-4 cell growth in a cell viability assay.

BB49-HNC = assay type: functional, cell-based
Description: SANGER: Inhibition of human BB49-HNC cell growth in a cell viability assay.

ML-2 = assay type: functional, cell-based
Description: SANGER: Inhibition of human ML-2 cell growth in a cell viability assay.

ETK-1 = assay type: functional, cell-based
Description: SANGER: Inhibition of human ETK-1 cell growth in a cell viability assay.

L-428 = assay type: functional, cell-based
Description: SANGER: Inhibition of human L-428 cell growth in a cell viability assay.

C2BBe1 = assay type: functional, cell-based
Description: SANGER: Inhibition of human C2BBe1 cell growth in a cell viability assay.

HL-60 = assay type: functional, cell-based
Description: SANGER: Inhibition of human HL-60 cell growth in a cell viability assay.

no-10 = assay type: functional, cell-based
Description: SANGER: Inhibition of human no-10 cell growth in a cell viability assay.

LXF-289 cell line = assay type: functional, cell-based
Description: SANGER: Inhibition of human LXF-289 cell growth in a cell viability assay.

MHH-NB-11 = assay type: functional, cell-based
Description: SANGER: Inhibition of human MHH-NB-11 cell growth in a cell viability assay.

SF-268 = assay type: functional, cell-based
Description: SANGER: Inhibition of human SF268 cell growth in a cell viability assay.

GT3TKB = assay type: functional, cell-based
Description: SANGER: Inhibition of human GT3TKB cell growth in a cell viability assay.

J-RT3-T3-5 = assay type: functional, cell-based
Description: SANGER: Inhibition of human J-RT3-T3-5 cell growth in a cell viability assay.

LAN-6 = assay type: functional, cell-based
Description: SANGER: Inhibition of human LAN-6 cell growth in a cell viability assay.

IST-MES1 = assay type: functional, cell-based
Description: SANGER: Inhibition of human IST-MES1 cell growth in a cell viability assay.

## CCNc1cc(N[C@H]2CC[C@@H](O)CC2)nc(Nc2ccc3c(ccn3Cc3ccccc3)c2)n1
MZ2-MEL
  IC50: > 5.12 µM
SH-4
  IC50: 3.31 µM
VA-ES-BJ
  IC50: > 5.12 µM
KE-37
  IC50: > 5.12 µM
L-363
  IC50: > 5.12 µM
NMC-G1
  IC50: > 5.12 µM
COLO-320-HSR
  IC50: > 5.12 µM
PSN1
  IC50: > 5.12 µM
SF-126
  IC50: > 5.12 µM
NCI-H526
  IC50: > 5.12 µM
MFH-ino
  IC50: > 5.12 µM
D-263MG
  IC50: > 5.12 µM
NCI-H747
  IC50: > 5.12 µM
ONS-76
  IC50: > 5.12 µM
LS-411N
  IC50: > 5.12 µM
EW-16
  IC50: > 5.12 µM
HC-1
  IC50: > 5.12 µM
NCI-H1355
  IC50: > 5.12 µM
HD-MY-Z
  IC50: > 5.12 µM
GR-ST
  IC50: > 5.12 µM
ES7
  IC50: > 5.12 µM
MLMA
  IC50: > 5.12 µM
NOMO-1
  IC50: > 5.12 µM
TE-5
  IC50: > 5.12 µM
EM-2
  IC50: > 5.12 µM
LS-1034
  IC50: > 5.12 µM
HCE-T
  IC50: > 5.12 µM
K562
  IC50: > 5.12 µM
HT
  IC50: > 5.12 µM
SW 962
  IC50: > 5.12 µM
OVCAR-4
  IC50: > 5.12 µM
DOHH-2
  IC50: 3.46 µM
EW-11
  IC50: > 5.12 µM
NCI-H720
  IC50: > 5.12 µM
NKM-1
  IC50: > 5.12 µM
COLO-829
  IC50: > 5.12 µM
KS-1
  IC50: 4.3 µM
DU-4475
  IC50: > 5.12 µM
EC-GI-10
  IC50: > 5.12 µM
NCI-H2126
  IC50: > 5.12 µM
DSH1
  IC50: > 5.12 µM
LB373-MEL-D
  IC50: > 5.12 µM
CTB-1
  IC50: > 5.12 µM
NCI-H82
  IC50: > 5.12 µM
MC116
  IC50: > 5.12 µM
BT-474
  IC50: > 5.12 µM
LAMA-84
  IC50: > 5.12 µM
MV4-11
  IC50: > 5.12 µM
RS4-11
  IC50: 3.74 µM
LU-134-A
  IC50: > 5.12 µM
MOLT-4
  IC50: > 5.12 µM
BB49-HNC
  IC50: > 5.12 µM
ML-2
  IC50: > 5.12 µM
ETK-1
  IC50: 0.242 µM
L-428
  IC50: > 5.12 µM
C2BBe1
  IC50: > 5.12 µM
HL-60
  IC50: > 5.12 µM
no-10
  IC50: > 5.12 µM
LXF-289 cell line
  IC50: > 5.12 µM
MHH-NB-11
  IC50: > 5.12 µM
SF-268
  IC50: > 5.12 µM
GT3TKB
  IC50: > 5.12 µM
J-RT3-T3-5
  IC50: > 5.12 µM
LAN-6
  IC50: > 5.12 µM
IST-MES1
  IC50: > 5.12 µM

## COc1cc(C)c(Sc2cnc(NC(=O)c3ccc(CNC(C)C(C)(C)C)cc3)s2)cc1C(=O)N1CCN(C(C)=O)CC1 (stereo not given)
MZ2-MEL
  IC50: 6.62 µM
SH-4
  IC50: 2.49 µM
VA-ES-BJ
  IC50: > 10.2 µM
KE-37
  IC50: > 10.2 µM
L-363
  IC50: 4.94 µM
NMC-G1
  IC50: 7.16 µM
COLO-320-HSR
  IC50: > 10.2 µM
PSN1
  IC50: 2.51 µM
SF-126
  IC50: > 10.2 µM
NCI-H526
  IC50: > 10.2 µM
MFH-ino
  IC50: 3.59 µM
D-263MG
  IC50: > 10.2 µM
NCI-H747
  IC50: 3.86 µM
ONS-76
  IC50: > 10.2 µM
LS-411N
  IC50: 4.34 µM
EW-16
  IC50: 1.72 µM
HC-1
  IC50: > 10.2 µM
NCI-H1355
  IC50: 6.22 µM
HD-MY-Z
  IC50: 9.44 µM
GR-ST
  IC50: > 10.2 µM
ES7
  IC50: > 10.2 µM
MLMA
  IC50: > 10.2 µM
NOMO-1
  IC50: > 10.2 µM
TE-5
  IC50: > 10.2 µM
EM-2
  IC50: > 10.2 µM
LS-1034
  IC50: 7.42 µM
HCE-T
  IC50: > 10.2 µM
K562
  IC50: > 10.2 µM
HT
  IC50: > 10.2 µM
SW 962
  IC50: 8.13 µM
OVCAR-4
  IC50: 9.62 µM
DOHH-2
  IC50: > 10.2 µM
EW-11
  IC50: > 10.2 µM
NCI-H720
  IC50: > 10.2 µM
NKM-1
  IC50: 10.1 µM
COLO-829
  IC50: > 10.2 µM
KS-1
  IC50: 1.21 µM
DU-4475
  IC50: > 10.2 µM
EC-GI-10
  IC50: > 10.2 µM
NCI-H2126
  IC50: > 10.2 µM
DSH1
  IC50: > 10.2 µM
LB373-MEL-D
  IC50: > 10.2 µM
CTB-1
  IC50: > 10.2 µM
NCI-H82
  IC50: > 10.2 µM
MC116
  IC50: > 10.2 µM
BT-474
  IC50: > 10.2 µM
LAMA-84
  IC50: > 10.2 µM
MV4-11
  IC50: 5.88 µM
RS4-11
  IC50: 5.79 µM
LU-134-A
  IC50: > 10.2 µM
MOLT-4
  IC50: > 10.2 µM
BB49-HNC
  IC50: > 10.2 µM
ML-2
  IC50: 3.81 µM
ETK-1
  IC50: 2.24 µM
L-428
  IC50: > 10.2 µM
C2BBe1
  IC50: > 10.2 µM
HL-60
  IC50: > 10.2 µM
no-10
  IC50: > 10.2 µM
LXF-289 cell line
  IC50: 9.12 µM
MHH-NB-11
  IC50: > 10.2 µM
SF-268
  IC50: > 10.2 µM
GT3TKB
  IC50: > 10.2 µM
J-RT3-T3-5
  IC50: > 10.2 µM
LAN-6
  IC50: 7.29 µM
IST-MES1
  IC50: > 10.2 µM
